One substance from PMC3156899 (Clinical cancer research : an official journal of the …, 2011) can be followed below.

This experiment relates to pp65#23-specific CD4+ T cells. Description: Cytokine ELISPOT / ELISA of pp65#23-specific CD4+ T cells. It counts as cell-based, human. For orientation: An ELISA detects its analyte on a solid surface through an enzyme-linked reagent.

As for 221DQYVKVYLESFCEDVPSGKL240 [pp65#23], the “IL-10 and IL-17 secretion” value (IL-10 ELISPOT, IL-17 ELISA (limit of detection 15.0 pg/ml)) was “no IL-10 or IL-17 was detected”. For the same substance, where the note is “antigen-specific, T2/DP4 pulsed with peptide, Figure 3B”, the “IFN-γ and IL-4 secretion (ELISPOT)” value was “predominantly secreted IFN-γ and much less IL-4”. In addition, the “IL-2 production (ELISPOT)” value (upon stimulation, Figure 3B) is on record as “produced IL-2”.
